The results in this text go back to patent publication US20260015360A1 (MOMA Therapeutics, Inc., priority 2023, published 2026).

Each structure is given as a SMILES string.

One assay relates to DLD1 BRCA2 (−/−) cells. In words: DLD1 viability assay (CellTiter-Glo, 7 days), DLD1 BRCA2 (−/−). Format: cell-based. To be noted: Homo sapiens, DLD-1, 168 h, read-out: Viability IC50 (μM) DLD1 BRCA2 null. As to the method: (§1) The seeding densities are pre-determined from the growth curve kinetics performed to ensure log linear phase of cell growth for these 2 cell lines. These assay plates are then placed in the incubator at 37° C., 5% CO2, relative humidity>90% for a few hours before addition of test compounds. Compounds are dispensed using the Tecan HPD300 or Echo based on the plate map in the appropriate wells of the 384-well plates. […] After addition of the test compounds, the plates are incubated at 37° C., 5% CO2, relative humidity>90% for 7 days. CellTiter-Glo (Promega Cat. No. G7573), ATP detection reagent is prepared according to manufacturer's specifications. Cell assay plates are removed from incubator and bring to room temperature (RT) by letting them sit at bench top for at least 15 min. Using the MultiDrop liquid handler or a multichannel pipette, 35 μL/well of CTG is added and the plates are then placed shakes for 5 seconds, RT. These plates are then incubated for 30 minutes in the dark at RT before measuring luminescence using Spectramax/Enspire/Ensight/Envision/PheraSTAR.

Another assay relates to DLD1 WT cells. Put plainly: DLD1 viability assay (CellTiter-Glo, 7 days), DLD1 WT. The assay is classed as cell-based. To be noted: Homo sapiens, DLD-1, 168 h. As to the method:
as §1
A general note: Cellular ATP, detected with luciferase, serves as a proxy for viable cell number.

On to `COc1cnc(Cl)cc1-c1cc(C)ncc1C(=O)Nc1nc2ncc(C3CCOC(C)(C)C3)nc2s1` (stereo not drawn) [Example 389, 2′-chloro-N-(6-(2,2-dimethyltetrahydro-2H-pyran-4-yl)thiazolo[4,5-b]pyrazin-2-yl)-5′-methoxy-6-methyl-[4,4′-bipyridine]-3-carboxamide], for which the IC50 (in general, the concentration needed to halve the response being measured) with DLD1 BRCA2 (−/−) cells is 0.001 to 0.1 µM; in the assay on DLD1 WT cells, more than 10 µM.
Regarding `COc1cnc(Cl)cc1-c1cc(C)ncc1C(=O)Nc1nc2ncc(C3=CCC(O)(C(F)F)CC3)nc2s1` (stereo not drawn) [Example 396, 2′-chloro-N-(6-(4-(difluoromethyl)-4-hydroxycyclohex-1-en-1-yl)thiazolo[4,5-b]pyrazin-2-yl)-5′-methoxy-6-methyl-[4,4′-bipyridine]-3-carboxamide], the IC50 in the assay with DLD1 BRCA2 (−/−) cells is 0.001 to 0.1 µM; in the assay on DLD1 WT cells, more than 10 µM.
For the molecule `COc1cnc(Cl)cc1-c1cc(C)ncc1C(=O)Nc1nc2ncc(C3CCC(OC(F)F)CC3)nc2s1` (stereo not drawn) [Example 398, 2′-chloro-N-(6-(4-(difluoromethoxy)cyclohexyl)thiazolo[4,5-b]pyrazin-2-yl)-5′-methoxy-6-methyl-[4,4′-bipyridine]-3-carboxamide], the IC50 in the assay on DLD1 BRCA2 (−/−) cells is 0.001 to 0.1 µM; in the assay on DLD1 WT cells it was more than 10 µM.
As to `COc1cnc(Cl)cc1-c1cc(C)ncc1C(=O)Nc1nc2ncc(C3=CCC(OC(F)F)CC3)nc2s1` (stereo not drawn) [Example 405, 2′-chloro-N-(6-(4-(difluoromethoxy)cyclohex-1-en-1-yl)thiazolo[4,5-b]pyrazin-2-yl)-5′-methoxy-6-methyl-[4,4′-bipyridine]-3-carboxamide], the IC50 with DLD1 BRCA2 (−/−) cells is 0.001 to 0.1 µM; with DLD1 WT cells, more than 10 µM.
Regarding `COc1cnc(Cl)cc1-c1cc(C)ncc1C(=O)Nc1nc2ncc(C3=CCC(C)(C#N)CC3)nc2s1` (stereo not drawn) [Example 407, 2′-chloro-N-(6-(4-cyano-4-methylcyclohex-1-en-1-yl)thiazolo[4,5-b]pyrazin-2-yl)-5′-methoxy-6-methyl-[4,4′-bipyridine]-3-carboxamide], the IC50 is 0.001 to 0.1 µM in the assay with DLD1 BRCA2 (−/−) cells and more than 10 µM in the assay on DLD1 WT cells.
For the molecule `COc1cnc(Cl)cc1-c1cc(C)ncc1C(=O)Nc1nc2ncc(N3C[C@@H](C)OC[C@H]3C)nc2s1` [Example 409, 2′-chloro-N-(6-((2R,5R)-2,5-dimethylmorpholino)thiazolo [4,5-b]pyrazin-2-yl)-5′-methoxy-6-methyl-[4,4′-bipyridine]-3-carboxamide], the IC50 with DLD1 BRCA2 (−/−) cells was 0.001 to 0.1 µM; in the assay on DLD1 WT cells it was more than 10 µM.
For `COc1cnc(Cl)cc1-c1cc(C)ncc1C(=O)Nc1nc2ncc(C3CCC(C)(C#N)CC3)nc2s1` (stereo not drawn) [Example 410, 2′-chloro-N-(6-(4-cyano-4-methylcyclohexyl)thiazolo[4,5-b]pyrazin-2-yl)-5′-methoxy-6-methyl-[4,4′-bipyridine]-3-carboxamide], the IC50 was 0.001 to 0.1 µM in the assay on DLD1 BRCA2 (−/−) cells and more than 10 µM in the assay with DLD1 WT cells.
For `COc1cnc(Cl)cc1-c1cc(C)ncc1C(=O)Nc1nc2ncc(N3C[C@H](C)OC[C@@H]3C)nc2s1` [Example 412, 2′-chloro-N-(6-((2S,5S)-2,5-dimethylmorpholino)thiazolo [4,5-b]pyrazin-2-yl)-5′-methoxy-6-methyl-[4,4′-bipyridine]-3-carboxamide], the IC50 is 0.001 to 0.1 µM in the assay on DLD1 BRCA2 (−/−) cells and more than 10 µM in the assay on DLD1 WT cells.
`COc1cnc(Cl)cc1-c1cc(C)ncc1C(=O)Nc1nc2ncc(C3=CCC(OC(F)(F)F)CC3)nc2s1` (stereo not drawn) [Example 420, 2′-chloro-5′-methoxy-6-methyl-N-(6-(4-(trifluoromethoxy)cyclohex-1-en-1-yl)thiazolo[4,5-b]pyrazin-2-yl)-[4,4′-bipyridine]-3-carboxamide]: the IC50 in the assay on DLD1 BRCA2 (−/−) cells was in the range of 0.001 to 0.1 µM; in the assay with DLD1 WT cells, 7.5 to 10 µM.
As to `COc1ccc(C#N)cc1-c1cc(C)ncc1C(=O)Nc1nc2ncc(C3=CCC(CO)CC3)nc2s1` (stereo not drawn) [Example 421, 4-(5-cyano-2-methoxyphenyl)-N-(6-(4-(hydroxymethyl)cyclohex-1-en-1-yl)thiazolo[4,5-b]pyrazin-2-yl)-6-methylnicotinamide], the IC50 with DLD1 BRCA2 (−/−) cells is 0.001 to 0.1 µM; with DLD1 WT cells, more than 10 µM.
Regarding `COc1cnc(Cl)cc1-c1cc(C)ncc1C(=O)Nc1nc2ncc(N3C[C@H](C)OC[C@H]3C)nc2s1` [Example 422, 2′-chloro-N-(6-((2S,5R)-2,5-dimethylmorpholino)thiazolo [4,5-b]pyrazin-2-yl)-5′-methoxy-6-methyl-[4,4′-bipyridine]-3-carboxamide], the IC50 in the assay on DLD1 BRCA2 (−/−) cells was 0.001 to 0.1 µM; in the assay on DLD1 WT cells, more than 10 µM.
As for `COc1cnc(Cl)cc1-c1cc(C)ncc1C(=O)Nc1nc2ncc(N3CCOC4CCCC43)nc2s1` (stereo not drawn) [Example 424, 2′-chloro-N-(6-(hexahydrocyclopenta[b][1, 4]oxazin-4(4aH)-yl)thiazolo[4,5-b]pyrazin-2-yl)-5′-methoxy-6-methyl-[4,4′-bipyridine]-3-carboxamide], the IC50 was 0.001 to 0.1 µM in the assay on DLD1 BRCA2 (−/−) cells and more than 10 µM with DLD1 WT cells.
Consider `COc1cnc(Cl)cc1-c1cc(C)ncc1C(=O)Nc1nc2ncc(N3CCOC(C(F)F)C3)nc2s1` (stereo not drawn) [Example 429, 2′-chloro-N-(6-(2-(difluoromethyl)morpholino)thiazolo[4,5-b]pyrazin-2-yl)-5′-methoxy-6-methyl-[4,4′-bipyridine]-3-carboxamide], for which the IC50 is 0.001 to 0.1 µM in the assay on DLD1 BRCA2 (−/−) cells and more than 10 µM in the assay with DLD1 WT cells.
With `COc1cnc(Cl)cc1-c1cc(C)ncc1C(=O)Nc1nc2ncc(N3CCO[C@H](C(F)(F)F)C3)nc2s1` [Example 430, (S)-2′-chloro-5′-methoxy-6-methyl-N-(6-(2-(trifluoromethyl)morpholino)thiazolo[4,5-b]pyrazin-2-yl)-[4,4′-bipyridine]-3-carboxamide], the IC50 in the assay with DLD1 BRCA2 (−/−) cells was 0.001 to 0.1 µM; in the assay with DLD1 WT cells, more than 10 µM.
As to `COc1cnc(Cl)cc1-c1cc(C)ncc1C(=O)Nc1nc2ncc(C3CCN(CC(F)(F)F)CC3)nc2s1` [Example 432, 2′-chloro-5′-methoxy-6-methyl-N-(6-(1-(2,2,2-trifluoroethyl)piperidin-4-yl)thiazolo[4,5-b]pyrazin-2-yl)-[4,4′-bipyridine]-3-carboxamide], the IC50 is 0.001 to 0.1 µM in the assay with DLD1 BRCA2 (−/−) cells and more than 10 µM in the assay on DLD1 WT cells.
`COc1cnc(Cl)cc1-c1cc(C)ncc1C(=O)Nc1nc2ncc([C@@H]3CCO[C@@H](C)C3)nc2s1` [Example 433, 2′-chloro-5′-methoxy-6-methyl-N-(6-((2S,4R)-2-methyltetrahydro-2H-pyran-4-yl)thiazolo[4,5-b]pyrazin-2-yl)-[4,4′-bipyridine]-3-carboxamide]: the concentration for half-maximal inhibition (IC50) with DLD1 BRCA2 (−/−) cells is 0.001 to 0.1 µM; in the assay on DLD1 WT cells it was more than 10 µM.
The matching figures for `COc1cnc(Cl)cc1-c1cc(C)ncc1C(=O)Nc1nc2ncc(N3C[C@H](C)O[C@@H](C)C3)nc2s1` [Example 436, 2′-chloro-N-(6-((2S,6S)-2,6-dimethylmorpholino)thiazolo [4,5-b]pyrazin-2-yl)-5′-methoxy-6-methyl-[4,4′-bipyridine]-3-carboxamide]: 0.001 to 0.1 µM and more than 10 µM.
On to `COc1cnc(Cl)cc1-c1cc(C)ncc1C(=O)Nc1nc2ncc(N3CCO[C@@H](C(F)(F)F)C3)nc2s1` [Example 440, (R)-2′-chloro-5′-methoxy-6-methyl-N-(6-(2-(trifluoromethyl)morpholino)thiazolo[4,5-b]pyrazin-2-yl)-[4,4′-bipyridine]-3-carboxamide], for which the IC50 is 0.001 to 0.1 µM in the assay with DLD1 BRCA2 (−/−) cells and more than 10 µM with DLD1 WT cells.
The matching figures for `COc1cnc(Cl)cc1-c1cc(C)ncc1C(=O)Nc1nc2ncc(C3=CCOC(C)C3)nc2s1` (stereo not drawn) [Example 443, 2′-chloro-5′-methoxy-6-methyl-N-(6-(2-methyl-3,6-dihydro-2H-pyran-4-yl)thiazolo[4,5-b]pyrazin-2-yl)-[4,4′-bipyridine]-3-carboxamide]: 0.001 to 0.1 µM and more than 10 µM.
`COc1cnc(Cl)cc1-c1cc(C2CC2)ncc1C(=O)Nc1nc2ncc(-c3ccnc(C)c3)nc2s1` [Example 445, 2′-chloro-6-cyclopropyl-5′-methoxy-N-(6-(2-methylpyridin-4-yl)thiazolo[4,5-b]pyrazin-2-yl)-[4,4′-bipyridine]-3-carboxamide]: the IC50 is 0.001 to 0.1 µM in the assay with DLD1 BRCA2 (−/−) cells and more than 10 µM in the assay with DLD1 WT cells.
The matching figures for `COc1cnc(Cl)cc1-c1cc(C)ncc1C(=O)Nc1nc2ncc(-c3cccc(C(F)F)n3)nc2s1` [Example 446, 2′-chloro-N-(6-(6-(difluoromethyl)pyridin-2-yl)thiazolo[4,5-b]pyrazin-2-yl)-5′-methoxy-6-methyl-[4,4′-bipyridine]-3-carboxamide]: 0.001 to 0.1 µM and more than 10 µM.
On to `COc1cnc(Cl)cc1-c1cc(C)ncc1C(=O)Nc1nc2ncc(N3CC[C@H](OC)[C@@H](F)C3)nc2s1` [Example 452, 2′-chloro-N-(6-((3S,4S)-3-fluoro-4-methoxypiperidin-1-yl)thiazolo[4,5-b]pyrazin-2-yl)-5′-methoxy-6-methyl-[4,4′-bipyridine]-3-carboxamide], for which the results for the IC50 in the assay on DLD1 BRCA2 (−/−) cells and in the assay on DLD1 WT cells were 0.001 to 0.1 µM and more than 10 µM, respectively.
Regarding `CNC1CCN(c2cnc3nc(NC(=O)c4cnc(C)cc4-c4cc(Cl)ncc4OC)sc3n2)CC1(F)F` (stereo not drawn) [Example 455, 2′-chloro-N-(6-(3,3-difluoro-4-(methylamino)piperidin-1-yl)thiazolo[4,5-b]pyrazin-2-yl)-5′-methoxy-6-methyl-[4,4′-bipyridine]-3-carboxamide], the IC50 is 0.001 to 0.1 µM in the assay on DLD1 BRCA2 (−/−) cells and more than 10 µM in the assay on DLD1 WT cells.
Take `COc1cnc(Cl)cc1-c1cc(C)ncc1C(=O)Nc1nc2ncc(N3CCC4(CCCO4)CC3)nc2s1` [Example 459, N-(6-(1-oxa-8-azaspiro[4.5]decan-8-yl)thiazolo[4,5-b]pyrazin-2-yl)-2′-chloro-5′-methoxy-6-methyl-[4,4′-bipyridine]-3-carboxamide]: the values for the IC50 in the assay on DLD1 BRCA2 (−/−) cells and with DLD1 WT cells were 0.001 to 0.1 µM and more than 10 µM, respectively.
